Consider 5 molecules from US20230142647A1, “METHOD OF TREATING CANCER OR A BLOOD DISORDER” (priority 2021, published 2023).

Read-outs that look alike come from different tables or passages of the source.

Test [1] relates to HL-60 cell line. Kind of test: AML HL-60 cell line cell counts and morphologic differentiation. Particulars: Valtrate 6 μM, CAPE 4 μM, 5-AC 2.5 μM, selinexor 20 nM, day 5. In kind it is cell-based.
Experimental: Cell counts obtained using automated counter, Mean±SD (3 experiments) cell morphology obtained from the same cell culture. P<0.01 significant, t test (2 sided). The small molecule agents were used in dosages: Valtrate (6 μM), CAPE (4 μM), 5-AC (2.5 μM), selinexor (20 nM) and in the combinations relative to vehicle. cell counts (day 0-5) and morphology (day 5). (FIG. 3A) Valtrate, 5-AC, and Valtrate+5-AC cell count and morphologic changes relative to vehicle and individual agents. (FIG. 3B) CAPE, 5-AC, and CAPE+5-AC cell counts day 0-5 and morphologic changes on day 5 relative to vehicle and individual agents. (FIG. 3C) Combinational groups of 5-AC+valtrate, 5-AC+CAPE, and 5-AC+selinexor morphologic development (day 5) are compared.
The low dosages were purposed for use in combination with low dose 5-AC, Such as to position AML cells in a state of hypomethylated accessible chromatin with increased nuclear transcription factors. cell counts and morphologic alterations were observed. Dosages for this purpose were: Valtrate (6 μM), CAPE (4 μM), 5-AC (2.5 μM), and for comparing with Selinexor (20 nM) the same dosages were used for combinations.
For test [2], the system named is human NPM1/FLT3-mutated AML cells. Kind of test: single agent survival experiment in PDX model with NPM1/FLT3 mutations (Example 2). Particulars: 3x/wk from day 24; for survival benefit compared to vehicle (in words): Valtrate 10 mg/kg, CAPE 50 mg/kg, selinexor 7 mg/kg by oral gavage. In kind it is in vivo, mice. As to the method:
FIG. 4A. Experiment plan diagram. […] THU inhibits cytidine deaminase(CDA) to prolong 5-AC half-life. Treatment was initiated at day 24 and then repeated three times a week. Mice were humanly euthanized after becoming moribund or losing 15% of their initial weight in accordance with institutional guidelines. (FIG. 4B) Survival presented as Kaplan-Meier survival analysis graph from inoculation time to distress. P values and log-rank test are calculated and plotted. […] Mean±SD.
Immunodeficient NSG mice are xenotransplanted with human NPM1/FLT3-mutated AML cells.
On day 24 mice were assigned for treatment groups (n=5 per group). The treatment groups are 1) Vehicle, 2) Valtrate 10 mg/kg by oral gavage, 3) CAPE 50 mg/kg by oral gavage, 4) selinexor 7 mg/kg by oral gavage, 5) 5-AC2 mg/kg subcutaneously, and 6) 5-AC(2 mg/kg) subcutaneously+THU (20 mg/kg) intraperitoneally. The addition of THU extends 5-AC half-life, by inhibiting the enzyme cytidine deaminase(CDA), which degrades 5-AC. Treatment started on day 24, 3×/wk. (FIG. 4A). […] Groups are compared with vehicle and with each other. To monitor progress periodic blood counts are analyzed along with distress signs.

Test [3] deals with AML with NPM1/FLT3 mutations cells. As to the kind of experiment: survival study of combinations in high tumor load PDX model of NPM1/FLT3 mutations (Example 4). The class given is in vivo, mice. Particulars: at distress point or day 200.
Text: FIG. 9A Treatment groups illustration: Primary acute myelogenous leukemia (AML) patient cells with Nucleophosmin 1 and fins-like tyrosine kinase-3 mutations (NPM1/FLT3) were xenotranplanted into immunodeficient Nod-SCID-IL-2Rgamma-null mice (NSG, Jackson Laboratory) by injecting 1×10^6 cells IV (n=5 per group) at day 0 (D0). Engraftment D28≥45% bone engraftment was confirmed in 3 randomly selected mice. At D28 mice were divided in to five treatment groups (n=5 per group), 1) Vehicle, 2) 5-AC(2 mg/kg)/THU(20 mg/kg), 3) 5-AC(2 mg/kg)/THU(20 mg/kg)/selinexor (5 mg/kg), 4) 5-AC(2 mg/kg)/THU(20 mg/kg)/CAPE (50 mg/kg) and 5) 5-AC(2 mg/kg)/THU(20 mg/kg)/Valtrate(10 mg/kg). […]
Peripheral blood analysis of WBCs, hemoglobin Hb, and platelets count. peripheral blood obtained by tail vein phlebotomy and serial blood counted on day 0, 45, 100, 140 and 200. And analyzed by HemaVet blood lab. […]
An image analysis to evaluate tumor burden of the spleens, was by histologic identification of relatively large infiltrating AML cells, replacing normal splenic structure by H&E staining of spleen sections. Image analysis of cell counts were plotted and quantified. […]
Furthermore, efficacy vs toxicity is best assessed by serial peripheral blood analysis of WBCs, hemoglobin Hb, and platelets. […] Blood samples were analyzed by HemaVet blood lab. […]
The test system of test [4] is AML (NPM1-FLT3 and MLL). In kind it is in vivo.

`O=C(/C=C\n1cnc(-c2cc(C(F)(F)F)cc(C(F)(F)F)c2)n1)NNc1cnccn1` [selinexor]: the “spindle shaped cells (terminal fate morphology)” value in test [1] is on record as “not observed”. Moreover, in test [2], the “survival benefit compared to vehicle (in words)” value is recorded as “minimal”.

As for `Nc1ncn([C@@H]2O[C@H](CO)[C@@H](O)[C@H]2O)c(=O)n1` [5-AC, 5-Azacytidine], the “femoral and tibial bone appearance (white = leukemia replacement, red/dark = functional hematopoiesis)” value in test [3] is listed as “White pale bones”. In test [2] (5-AC 2 mg/kg subcutaneously, THU 20 mg/kg intraperitoneally), the survival benefit result is reported as “more than 25 days”.

`O=C1NC(O)CCN1[C@@H]1O[C@H](CO)[C@@H](O)[C@H]1O` (stereo partly shown) [THU, Tetrahydrouridine]: the “femoral and tibial bone appearance (white = leukemia replacement, red/dark = functional hematopoiesis)” value in test [3] is on record as “White pale bones”.

On to `O=C(/C=C/c1ccc(O)c(O)c1)OCCc1ccccc1` [CAPE, Caffeic Acid Phenethyl Ester], for which, in test [1], the “spindle shaped cells (terminal fate morphology)” value is “not observed”. Further, in test [2], the “survival benefit compared to vehicle (in words)” value is “minimal”. In test [4] (oral Valtrate 10 mg/kg 3x/wk or CAPE 50 mg/kg 3x/wk, in combination with 5-AC), the “synergy in combination with 5-AC” value was “effective synergetic action”.

Valtrate: the “survival benefit compared to vehicle (in words)” value in test [2] is recorded as “minimal”. For the same molecule, the “synergy in combination with 5-AC” value in test [4] (mouse, in vivo) is given as “effective synergetic action”.
